Experimental data published in patent US20040224953A1, “Fused bicyclic-substituted amines as histamine-3 receptor ligands” (priority 2003, published 2004).

melting point: 70 to 72 °C
Compound: C[C@@H]1CCCN1CCc1nc2cc(-c3ccc(C#N)cc3)ccc2o1 [Example 24E, 4-{2-[2-(2-(R)-methyl-pyrrolidin-1-yl)-ethyl]-benzooxazol-5-yl}-benzonitrile]
